According to patent US12275734B1, “Pleuromutilin onium salt derivative containing a 3H-imidazo[4,5-c]pyridine side chain, and a preparation method and application thereof” (SHAANXI UNIVERSITY OF SCIENCE AND TECHNOLOGY, priority 2024, dated 2025):
Like-named read-outs stand apart in the source and are kept apart here. One block for each molecule: values may come before it.

How the values were obtained:
Assay type in all cases: cell-based
[1] = tested on: carbapenem-resistant Acinetobacter baumannii-882; test: MIC, clinical isolates; conditions: read-out: Antibacterial activity (MIC) CR-AB^j
Description: (§1) The minimum inhibitory concentration of 3H-imidazo[4,5-C]pyridine pleuromutilin onium salt derivatives against the tested pathogenic microorganisms were determined by broth microdilution method, with valnemulin and retapamulin as positive controls.
(§2) The experimental strains included resistant Gram-positive bacteria: Methicillin-resistant S. aureus ATCC 33591; Methicillin-resistant S. aureus ATCC 43300; S. aureus ATCC 29213; Methicillin-resistant S. epidermidis ATCC 51625. Resistant Gram-negative bacteria: A. baumannii ATCC 19606; S. enterica ATCC14028; E. coli ATCC 25922; E. coli CMCC 44103. 9 clinically isolated resistant strains: MRSA-171; MRSA-575; MRSA-206; MRSA-222; MRSA-596; VRE-80; MDR-PA-126; MDR-KP-893; CR-AB-882.
(§3) (1) Preparation of MHB medium: Weigh 18.0 g of MHB medium pre-made powder, add it to 1 L of distilled water, heat and boil until completely dissolved, divide it into conical bottles, sterilize it by high pressure at 121° C. for 15 minutes, and set aside.
(§4) (2) Cultivate the experimental strain to the logarithmic growth phase: Under sterile conditions, inoculate the experimental strain into fresh MHB medium and culture it in a 37° C. constant temperature and humidity incubator for 16-24 hours. Adjust the bacterial solution concentration to 1.5×10^8 CFU/mL and then dilute it 200 times for later use.
(§5) (3) Preparation of storage solution: Weigh the sample to be tested, dissolve it in 1% DMSO solution, and prepare a storage solution with a concentration of 2560 μg/mL; weigh the positive control, dissolve it in sterile distilled water, and prepare a storage solution with a concentration of 2560 μg/mL.
(§6) (4) Preparation of bacterial suspension: Under sterile conditions, the experimental strain cultured to the logarithmic growth phase was calibrated to a 0.5 McFarland unit turbidity standard using MHB medium and then diluted at a ratio of 1:200 to prepare a bacterial suspension with a concentration of 5×10^5 CFU/mL for later use.
(§7) (5) Determination of MIC by two-fold microdilution method: Take a sterile 96-well plate, add 10 μL of the test compound at a concentration of 2560 μg/mL, and perform serial dilutions by the two-fold dilution method. At the same time, set up a negative control group without drug. Then add 190 μL of diluted bacterial solution to each well, so that the final bacterial solution concentration in each well is 5×10^5 CFU/mL, and incubate in a 37° C. constant temperature and humidity chamber for 24 hours.

[2] = tested on: methicillin-resistant Staphylococcus aureus-206; test: MIC, clinical isolates; conditions: MRSA, read-out: Antibacterial activity (MIC) MRSA^d
Description: as §1, §2, §3, §4, §5, §6, §7

[3] = tested on: methicillin-resistant Staphylococcus aureus-222; test: MIC, clinical isolates; conditions: MRSA / MRSE, read-out: Antibacterial activity (MIC) MRSE^e
Description: as §1, §2, §3, §4, §5, §6, §7

[4] = tested on: methicillin-resistant Staphylococcus aureus-596; test: MIC, clinical isolates; conditions: MRSA, read-out: Antibacterial activity (MIC) MRSA^f
Description: as §1, §2, §3, §4, §5, §6, §7

[5] = tested on: multidrug-resistant Klebsiella pneumoniae-893; test: MIC, clinical isolates; conditions: clinical isolate MDR-KP-893
Description: as §1, §2, §3, §4, §5, §6, §7

[6] = tested on: vancomycin-resistant Enterococcus-80; test: MIC, clinical isolates; conditions: VRE, read-out: Antibacterial activity (MIC) VRE^g
Description: as §1, §2, §3, §4, §5, §6, §7

[7] = tested on: methicillin-resistant Staphylococcus aureus-171; test: MIC, clinical isolates; conditions: MRSA, read-out: Antibacterial activity (MIC) MRSA^b
Description: as §1, §2, §3, §4, §5, §6, §7

[8] = tested on: multidrug-resistant Pseudomonas aeruginosa-126; test: MIC, clinical isolates; conditions: read-out: Antibacterial activity (MIC) MDR-PA^h
Description: as §1, §2, §3, §4, §5, §6, §7

[9] = tested on: methicillin-resistant Staphylococcus aureus-575; test: MIC, clinical isolates; conditions: MRSA, read-out: Antibacterial activity (MIC) MRSA^c
Description: as §1, §2, §3, §4, §5, §6, §7

[10] = tested on: E. coli ATCC 25922; test: MIC, broth microdilution; conditions: Escherichia coli
Description: as §1, §2, §3, §4, §5, §6, §7

[11] = tested on: S. enterica ATCC14028; test: MIC, broth microdilution; conditions: Salmonella enterica
Description: as §1, §2, §3, §4, §5, §6, §7

[12] = tested on: Methicillin-resistant S. aureus ATCC 33591; test: MIC, broth microdilution; conditions: Staphylococcus aureus, ATCC 33591 / MRSA, read-out: Minimum inhibitory concentration MRSA^b
Description: as §1, §2, §3, §4, §5, §6, §7

[13] = tested on: Methicillin-resistant S. aureus ATCC 43300; test: MIC, broth microdilution; conditions: Staphylococcus aureus, ATCC 43300 / MRSA, read-out: Minimum inhibitory concentration MRSA^c
Description: as §1, §2, §3, §4, §5, §6, §7

[14] = tested on: Methicillin-resistant S. epidermidis ATCC 51625; test: MIC, broth microdilution; conditions: Staphylococcus epidermidis, ATCC 51625 / MRSE, read-out: Minimum inhibitory concentration MRSE^e
Description: as §1, §2, §3, §4, §5, §6, §7

[15] = tested on: A. baumannii ATCC 19606; test: MIC, broth microdilution; conditions: Acinetobacter baumannii
Description: as §1, §2, §3, §4, §5, §6, §7

[16] = tested on: E.coli CMCC 44103; test: MIC, broth microdilution; conditions: Escherichia coli
Description: as §1, §2, §3, §4, §5, §6, §7

[17] = tested on: S. aureus ATCC 29213; test: MIC, broth microdilution; conditions: Staphylococcus aureus
Description: as §1, §2, §3, §4, §5, §6, §7

[18] = tested on: HepG2 Cells; test: Cytotoxicity, Cell Counting Kit-8; conditions: CCK-8, 24 hours incubation; read-out: CC50 HepG2 Cells
Description: (§8) Cell Counting Kit-8 was used to evaluate the cytotoxicity of the compounds.
(§9) (4) Cell culture: HepG2, HEK293 and A549 cells were evenly dispersed in culture medium, seeded into 96-well plates, and cultured under appropriate environmental conditions to keep the cells completely attached to the well walls.
(§10) (5) Compound treatment: Add different concentrations of compounds I-8 and I-9 to each well (the concentrations are 0.78, 1.56, 3.13, 6.25, 12.5, 25, 50 and 100 μM, respectively, and perform 6 parallel experiments). Set up a blank control group and a normal control group. After incubation for 24 hours, observe the cell condition, which observed under a microscope.
(§11) (6) CCK-8 solution treatment: Add CCK-8 solution to each well and incubate for 4 hours to allow it to react with the cells.
(§12) (7) Absorbance determination: Use a full-wavelength scanning multifunctional reader, place the 96-well plate in the instrument, oscillate to mix to make the color evenly distributed, and measure the absorbance value at 490 nm.
(§13) (8) Data analysis: Based on the measured absorbance values, the cell survival rate at different concentrations can be calculated. The median cytotoxic concentration was used to evaluate the cytotoxicity of the compound to A549, HEK293 and HepG2 cells.

[19] = tested on: HEK293 Cells; test: Cytotoxicity, Cell Counting Kit-8; conditions: CCK-8, 24 hours incubation; read-out: CC50 HEK293 Cells
Description: as §8, §9, §10, §11, §12, §13

[20] = tested on: A549 Cells; test: Cytotoxicity, Cell Counting Kit-8; conditions: CCK-8, 24 hours incubation; read-out: CC50 A549 Cells
Description: as §8, §9, §10, §11, §12, §13

[21] = ATCC25922, E. coli ATCC 25922, read-out: Minimum inhibitory concentration E.c.^h
[22] = S. enterica ATCC14028, read-out: Minimum inhibitory concentration S.e.^g
[23] = Methicillin-resistant S. aureus ATCC 33591
[24] = Methicillin-resistant S. aureus ATCC 43300
[25] = Methicillin-resistant S. epidermidis ATCC 51625
[26] = ATCC19606, A. baumannii ATCC 19606, read-out: Minimum inhibitory concentration A.b.^f
[27] = CMCC44103, E.coli CMCC 44103, read-out: Minimum inhibitory concentration E.c.^i
[28] = ATCC29213, S. aureus ATCC 29213, read-out: Minimum inhibitory concentration S.a.^d

Compound: C=C[C@]1(C)C[C@@H](OC(=O)CSc2nc3cc[n+](Cc4ccc(C#N)cc4)cc3[nH]2)[C@]2(C)[C@H](C)CC[C@]3(CCC(=O)[C@H]32)[C@@H](C)[C@@H]1O [Compound h, 5-(4-cyanobenzyl)-2-((2-(((3aR,4R,5R,7S,8S,9R,9aS,12R)-8-hydroxy-4,7,9,12-tetramethyl-3-oxo-7-vinyldecahydro-4,9a-propancyclopenta[8]cyclo-5-yl)oxy)-2-oxoethyl)thio)-3H-imidazo[4,5-C]pyridine-5-ium]
- MIC [1]: 64 µg/mL
- MIC [2]: 4 µg/mL
- MIC [3]: 16 µg/mL
- MIC [4]: 8 µg/mL
- Antibacterial activity (MIC) MDR-KP^i [5]: 16 µg/mL
- MIC [6]: 2 µg/mL
- MIC [7]: 16 µg/mL
- MIC [8]: 32 µg/mL
- MIC [9]: 32 µg/mL
- MIC ([10]; ATCC25922, read-out: Minimum inhibitory concentration E.c.^h): 0.5 µg/mL
- MIC ([11]; ATCC14028, read-out: Minimum inhibitory concentration S.e.^g): 2 µg/mL
- MIC [12]: 2 µg/mL
- MIC [13]: 0.5 µg/mL
- MIC [14]: 0.25 µg/mL
- MIC ([15]; ATCC19606, read-out: Minimum inhibitory concentration A.b.^f): 1 µg/mL
- MIC ([16]; CMCC44103, read-out: Minimum inhibitory concentration E.c.^i): 2 µg/mL
- MIC ([17]; ATCC29213, read-out: Minimum inhibitory concentration S.a.^d): 0.5 µg/mL
- CC50 [18]: 96.3 µM
- CC50 [19]: > 100 µM
- CC50 [20]: > 100 µM

- MIC [10, 21]: 64 µg/mL
- MIC [11, 22]: 32 µg/mL
- MIC [12, 23]: 64 µg/mL
- MIC [13, 24]: 32 µg/mL
- MIC [14, 25]: 64 µg/mL
- MIC [15, 26]: 64 µg/mL
- MIC [16, 27]: 64 µg/mL
- MIC [17, 28]: 64 µg/mL
Compound: C=C[C@]1(C)C[C@@H](OC(=O)CSc2nc3cc[n+](Cc4cc(C)cc(C)c4)cc3[nH]2)[C@]2(C)[C@H](C)CC[C@]3(CCC(=O)[C@H]32)[C@@H](C)[C@@H]1O [Compound l, 5-(3,5-dimethylbenzyl)-2-((2-(((3aR,4R,5R,7S,8S,9R,9aS,12R)-8-hydroxy-4,7,9,12-tetramethyl-3-oxo-7-vinyldecahydro-4,9a-propancyclopenta[8]cyclo-5-yl)oxy)-2-oxoethyl)thio)-3H-imidazo[4,5-C]pyridine-5-ium]

- MIC [10, 21]: 64 µg/mL
- MIC [11, 22]: 128 µg/mL
- MIC [12, 23]: 64 µg/mL
- MIC [13, 24]: 32 µg/mL
- MIC [14, 25]: 64 µg/mL
- MIC [15, 26]: 64 µg/mL
- MIC [16, 27]: 32 µg/mL
- MIC [17, 28]: 32 µg/mL
Compound: C=C[C@]1(C)C[C@@H](OC(=O)CSc2nc3cc[n+](Cc4cc(OC)cc(OC)c4)cc3[nH]2)[C@]2(C)[C@H](C)CC[C@]3(CCC(=O)[C@H]32)[C@@H](C)[C@@H]1O [Compound n, 5-(3,5-dimethoxybenzyl)-2-((2-(((3aR,4R,5R,7S,8S,9R,9aS,12R)-8-hydroxy-4,7,9,12-tetramethyl-3-oxo-7-vinyldecahydro-4,9a-propancyclopenta[8]cyclo-5-yl)oxy)-2-oxoethyl)thio)-3H-imidazo[4,5-C]pyridine-5-ium]
